Test results published in US11478467B2 (priority 2017, dated 2022).
Like-named read-outs stand apart in the source and are kept apart here.

What was measured:
[1] = cited from earlier work; for basal insulin secretion: mouse or human islets or in vivo
NMDA receptors = conditions: compared to that of DEX; cited from earlier work
[2] = system: locomotor activity, stereotypy, ataxia; conditions: rats, cited from earlier work; for PCP-elicited hyperactivity / motor behaviors after pretreatment: 10 mg/kg PCP; for behavioral effects given alone (locomotor hyperactivity, stereotypy, ataxia): DO 15-120 mg/kg, DEX 15-120 mg/kg, PCP 1.25-20 mg/kg
CYP2D6 = CYP2D6 (Homo sapiens (Human), UniProt P10635); conditions: dextromethorphan as substrate; cited from earlier work
Sequence of CYP2D6 (P10635 whole entry): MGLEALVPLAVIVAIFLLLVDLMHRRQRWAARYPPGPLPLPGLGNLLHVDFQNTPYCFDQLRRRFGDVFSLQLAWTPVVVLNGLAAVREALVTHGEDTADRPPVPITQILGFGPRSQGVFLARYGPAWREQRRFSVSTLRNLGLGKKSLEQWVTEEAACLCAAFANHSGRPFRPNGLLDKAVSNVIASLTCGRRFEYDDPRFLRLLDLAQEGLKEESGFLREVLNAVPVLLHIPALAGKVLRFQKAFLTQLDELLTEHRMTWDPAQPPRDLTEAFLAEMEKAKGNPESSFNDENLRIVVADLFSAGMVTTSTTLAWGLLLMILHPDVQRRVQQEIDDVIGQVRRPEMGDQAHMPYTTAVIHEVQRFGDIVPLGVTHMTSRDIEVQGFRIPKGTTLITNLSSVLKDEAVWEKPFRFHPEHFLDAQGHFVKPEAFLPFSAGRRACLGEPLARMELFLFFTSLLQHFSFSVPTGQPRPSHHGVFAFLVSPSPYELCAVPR

[3] = Pharmacokinetic study of sarpogrelate hydrochloride i.v. in rats; format: in vivo, rat; conditions: after sarpogrelate hydrochloride 2 mg/kg i.v.
Experimental: Pharmacokinetic study was performed in male Wistar rats equipped with the jugular vein cannulas. Sarpogrelate hydrochloride was formulated in Pharmasolv: PBS buffer (5:95) mixture and administered at the dose of 2 mg/kg intravenously. Blood samples were collected from the jugular vein using heparin as anticoagulant at the scheduled time-points: 5 min, 15 min, 30 min, 1 h, 1.5 h, 2 h, 4 h, and 6 h. An LC-MS/MS bioanalytical method was used for the simultaneous quantification of sarpogrelate and M1 in plasma samples. […] Formation of M1 metabolite of sarpogrelate was rapid as the highest M1 concentrations were measured at the first sampling time points.

[4] = format: in vivo, rat; conditions: 10 mg/kg intraperitoneally, male SD rats
Experimental: Adult male SD rats were pretreated with the compound 146 or M1 (10 mg/kg intraperitoneally) and the brain and blood plasma were collected 30, 60, 120 and 240 min after M1 administration. The amount of compound in brain tissue extracts was measured using the UPLC/MS analysis.

[5] = system: generalized anxiety disorder; conditions: human, in vivo; cited from earlier work
[6] = system: Parkinson's disease psychosis; conditions: cited from earlier work
[7] = system: MK-801-induced hyperactivity; conditions: 0.1 and 0.3 mg/kg s.c.; MK-801 0.3 mg/kg i.p.; mice; cited from earlier work
5-HT2A/5-HT2C receptors = conditions: in vivo; cited from earlier work
dopamine D2 receptors = dopamine D2 receptors (Homo sapiens (Human), UniProt P14416); conditions: cited from earlier work
Sequence of dopamine D2 receptors (P14416 whole entry): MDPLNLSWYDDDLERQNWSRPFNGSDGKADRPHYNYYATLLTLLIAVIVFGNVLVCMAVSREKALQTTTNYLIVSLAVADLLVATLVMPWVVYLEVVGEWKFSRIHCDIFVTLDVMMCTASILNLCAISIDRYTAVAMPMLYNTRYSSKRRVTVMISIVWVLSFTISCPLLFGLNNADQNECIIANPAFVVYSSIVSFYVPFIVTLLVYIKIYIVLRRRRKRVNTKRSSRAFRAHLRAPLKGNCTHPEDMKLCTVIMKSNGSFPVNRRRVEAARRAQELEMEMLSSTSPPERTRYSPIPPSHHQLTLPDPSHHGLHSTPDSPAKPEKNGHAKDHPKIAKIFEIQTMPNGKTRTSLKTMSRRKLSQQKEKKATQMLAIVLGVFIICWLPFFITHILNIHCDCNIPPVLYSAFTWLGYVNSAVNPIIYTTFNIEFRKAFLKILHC

[8] = dose-range that covers therapeutically relevant exposures; cited from earlier work
insomnia = conditions: human, in vivo; cited from earlier work
[9] = Blood glucose levels and oral glucose tolerance in rats; format: in vivo, rat; conditions: given alone, intraperitoneal
Experimental: Test substances were administered to male Wistar (Han) rats (180-280 g at the beginning of the experiments; Janvier Labs) housed in groups under free access to food and water. After overnight food deprivation, the tip of the tail was cut, each rat was weighed, housed individually and left without stress in a quiet room. Approximately 1 hour later, baseline blood glucose was measured from a drop of blood collected from the tail tip, using a commercially available glucose-meter (OneTouch®, Lifescan) and then rats received intraperitoneal injection of sarpogrelate and/or dextromethorphan and 30 min later blood glucose was measured again and rats immediately challenged with glucose at 2 g/kg by oral gavage. Then, blood glucose was measured at 6 time-points until 180 minutes post-glucose challenge.

[10] = system: rat primary mixed mesencephalic neuron-glia cultures; conditions: 1-10 micro M; cited from earlier work
[11] = system: PCP-induced hyperactivity; assay: Phencyclidine-induced hyperactivity in rats (sarpogrelate and dextromethorphan); format: in vivo, rat; conditions: dextromethorphan by itself
[12] = cited from earlier work
[13] = high doses; cited from earlier work
[14] = system: treatment-resistant major depressive disorder; conditions: in vivo; cited from earlier work

CN1CC[C@@]23CCCC[C@@H]2[C@@H]1Cc1ccc(O)cc13 [DO, dextrorphan]
basal insulin secretion [1]: did not significantly alter basal insulin secretion | affinity for NMDA receptors (NMDA receptors): substantially higher affinity | PCP-elicited hyperactivity / motor behaviors after pretreatment [2]: facilitated | PCP-elicited hyperactivity / motor behaviors after pretreatment ([2]; listed as dextrorphan): but not its metabolite dextrorphan | behavioral effects given alone (locomotor hyperactivity, stereotypy, ataxia) [2]: dose-dependent locomotor hyperactivity, stereotypy and ataxia

COc1cccc(CCc2ccccc2OCC(O)CN(C)C)c1 (racemic) [Compound 146, 1-(dimethylamino)-3-(2-(3-methoxyphenethyl)phenoxy)propan-2-ol]
inhibition type (Dixon plots) (CYP2D6): fit well to all competitive inhibition types | Formation of M1 metabolite of sarpogrelate [3]: rapid | M1/sarpogrelate ratio ([3]; plasma): 2.98±0.597% | total brain concentration vs blood concentration ([4]; 30, 60, 120 and 240 min): significantly exceeded the blood concentration | penetration into the brain [4]: readily penetrates into the brain

COC(=O)c1c2n(c3ccccc13)Cc1ccccc1N1CCN(C)CC21.Cl (stereo not shown) [serazepine]
efficacy in generalized anxiety disorder [5]: shown efficacy

CC(C)COc1ccc(CNC(=O)N(Cc2ccc(F)cc2)C2CCN(C)CC2)cc1 [ACP-103, N-(4-fluorophenylmethyl)-N-(1-methylpiperidin-4-yl)-N′-(4-(2-methylpropyloxy)phenylmethyl) carbamide (2R,3R)-dihydroxybutanedioate (2:1)]
night-time sleep and daytime wakefulness ([6]; compared with placebo): improvements on night-time sleep and daytime wakefulness | psychotic symptoms (hallucinations and delusions) ([6]; patients with moderate to severe Parkinson's disease): significantly reduced psychotic symptoms | MK-801-induced hyperactivity [7]: significantly attenuated MK-801-induced hyperactivity

N,N-dimethyl-2-[[(1R,3S,4R)-4,7,7-trimethyl-3-phenyl-3-bicyclo[2.2.1] heptanyl] oxy]ethanamine [Compound 829]
down-regulation of 5-HT2A/5-HT2C receptors (5-HT2A/5-HT2C receptors): does not induce down-regulation of these receptors | selectivity against dopamine D2 receptors (dopamine D2 receptors): at least 10 fold | prolactin [8]: not found to elevate prolactin

CN(C)CCO/N=C(/C=C/c1ccc(O)cc1)c1ccccc1F [eplivanserin]
clinical efficacy in insomnia (insomnia): demonstrated clinical efficacy in patients with insomnia

COc1ccc2c(c1)[C@@]13CCCC[C@H]1[C@@H](C2)N(C)CC3 [dextromethorphan, 3-methoxy-17-methylmorphinan]
glucose-induced plasma insulin concentrations and glucose tolerance ([1]; DEX via drinking water 4 mg/ml overnight, glucose i.p., mice): significantly higher glucose-induced plasma insulin concentrations and glucose tolerance | basal plasma insulin and fasting blood glucose concentrations ([1]; DEX via drinking water 4 mg/ml overnight, mice): changed neither basal plasma insulin nor fasting blood glucose concentrations | basal insulin secretion [1]: did not significantly alter basal insulin secretion | blood glucose level (AUC 30-180 min after oral glucose 2 g/kg) [9]: significantly reduced blood glucose level | protection of dopamine neurons [10]: protected dopamine neurons against lipopolysaccharide (LPS)-induced reduction of dopamine uptake | PCP-elicited hyperactivity / motor behaviors after pretreatment [2]: attenuate phencyclidine-induced motor behaviors | PCP-elicited hyperactivity / motor behaviors after pretreatment ([2]; listed as DEX): dose-dependently inhibited | behavioral effects given alone (locomotor hyperactivity, stereotypy, ataxia) [2]: induced moderate hyperactivity only at the higher doses | motor activity in PCP-treated rats ([11]; oral administration): enhanced | motor activity in PCP-treated rats ([11]; subcutaneous administration): reduced | area under the curve of blood glucose concentrations within the first 2 h of the OGTT (glucose AUC1-3 h) ([12]; 270 mg DEX vs placebo): significantly (P<0.05) smaller | maximal serum insulin concentrations following oral glucose intake ([12]; 60 and 270 mg DEX vs placebo): significantly (P<0.05) higher maximal serum insulin concentrations | fasting serum insulin and fasting blood glucose concentrations ([12]; single oral dose 60 or 270 mg, males with T2DM on metformin): led to neither higher fasting serum insulin concentrations nor lower fasting blood glucose concentrations | severe hypoglycemic events ([12]; up to a dose of 270 mg): did not provoke any severe hypoglycemic events | heart rate, blood pressure, temperature, and plasma bromide [13]: mild elevations of heart rate, blood pressure, temperature, and plasma bromide

CNC1(c2ccccc2Cl)CCCCC1=O (stereo not shown) [ketamine, 2-(2-chlorophenyl)-2-(methylamino)cyclohexan-1-one]
antidepressant activity [14]: rapid and robust antidepressant activity
